# Experiments:
# [1] = target: T1, HDAC6 (catalytic domain 2, CD2) (Danio rerio, UniProt F8W4B7); test: ITC; format: binding; conditions: […] HEPES pH […] KCl, […] glycerol, […] TCEP
# T1 sequence (F8W4B7 440-798): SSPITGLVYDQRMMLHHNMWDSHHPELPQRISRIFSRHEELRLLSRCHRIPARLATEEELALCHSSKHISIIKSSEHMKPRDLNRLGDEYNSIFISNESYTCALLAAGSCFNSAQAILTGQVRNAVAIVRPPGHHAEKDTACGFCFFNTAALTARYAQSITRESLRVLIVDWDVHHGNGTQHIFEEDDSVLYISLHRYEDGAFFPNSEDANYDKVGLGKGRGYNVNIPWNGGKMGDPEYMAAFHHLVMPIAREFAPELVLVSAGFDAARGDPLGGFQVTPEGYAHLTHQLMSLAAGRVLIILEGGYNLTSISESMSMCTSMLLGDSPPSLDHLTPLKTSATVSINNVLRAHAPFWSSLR
# [2] = target: T2, HDAC8 (Homo sapiens, UniProt Q9BY41); test: ITC; format: binding; conditions: […] HEPES pH […] KCl, […] glycerol, […] TCEP
# T2 sequence (Q9BY41 1-377): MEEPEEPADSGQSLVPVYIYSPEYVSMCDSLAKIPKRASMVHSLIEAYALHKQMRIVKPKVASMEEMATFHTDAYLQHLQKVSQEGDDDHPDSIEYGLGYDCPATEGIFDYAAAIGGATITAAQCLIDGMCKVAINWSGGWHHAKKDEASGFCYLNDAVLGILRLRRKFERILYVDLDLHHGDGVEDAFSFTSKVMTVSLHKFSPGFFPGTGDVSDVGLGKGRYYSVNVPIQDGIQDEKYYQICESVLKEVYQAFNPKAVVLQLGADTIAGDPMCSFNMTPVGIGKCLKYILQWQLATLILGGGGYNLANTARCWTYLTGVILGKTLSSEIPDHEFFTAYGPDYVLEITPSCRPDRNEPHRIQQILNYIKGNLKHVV
SMILES,Kd [1],Kd [2]
O=C(NO)c1ccc(CN(CCO)C(=O)Cc2ccccc2)cc1 [HPB],we additionally studied the binding of the phenylhydroxamate derivative HPB,we additionally studied the binding of the phenylhydroxamate derivative HPB
O=C(CCCCCCC(=O)Nc1ccccc1)NO [SAHA],the aliphatic hydroxamate inhibitor suberoylanilide hydroxamic acid (SAHA),–
O=C(CCCCCCNC(=O)c1cnc(N(c2ccccc2)c2ccccc2)nc1)NO [Ricolinostat],the aliphatic hydroxamate inhibitor Ricolinostat,–

# Source: article PMC6030506 (Biochemistry, 2018)
